Data from patent US20250346602A1, “LACTAM SUBSTITUTED IMIDAZOPYRIDAZINE IL-17A MODULATORS AND USES THEREOF” (DICE ALPHA, INC., priority 2022, published 2025).

Target: T1, IL-17A/A (Homo sapiens, UniProt Q16552)
T1 construct: purchased Genscript Z03228
T1 sequence (Q16552 24-155): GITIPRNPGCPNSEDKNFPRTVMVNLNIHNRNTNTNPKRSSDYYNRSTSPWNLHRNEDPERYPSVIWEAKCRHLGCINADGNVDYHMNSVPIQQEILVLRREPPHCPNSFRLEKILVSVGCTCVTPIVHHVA
Assay: IL-17A/A HEK-Blue cell assay
Assay type: cell-based
Settings: HEK-Blue IL-17A reporter cell line (HEK 293), IL-17A/A stimulation, 20 hours incubation, SEAP read at A630
Method in brief: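 HEK293 reporter cells expressing IL-17RA, IL-17RC and Act1 were given titrated compound (top final 10, 1 or 0.3 uM; 0.1% DMSO) right before IL-17A/A and incubated 20 hours. NFκB-driven SEAP in the media was read at A630 with Quanti-Blue, and IC50 came from a 4-parameter nonlinear fit.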

IC50	Compound
> 1 µM	CCn1nccc1C(=O)N[C@H](c1cn2nc(CC3C[C@@H](C(F)(F)F)CNC3=O)c(C(F)(F)F)cc2n1)[C@H]1CC[C@H](C)CC1 (single isomer, unassigned) [Compound 79]
< 0.1 µM	CCn1nccc1C(=O)N[C@H](c1cn2nc(CC3C[C@@H](C(F)(F)F)CNC3=O)ccc2n1)[C@H]1CCCC(F)(F)C1 (stereo partly drawn) [Compound 142, N-((1S)—((S)-3,3-difluorocyclohexyl)(6-(((5R)-2-oxo-5-(trifluoromethyl)piperidin-3-yl)methyl)imidazo[1,2-b]pyridazin-2-yl)methyl)-1-ethyl-1H-pyrazole-5-carboxamide]
0.1 to 1 µM	O=C(N[C@H](c1cn2nc(C[C@H]3C[C@@H](C(F)(F)F)NC3=O)ccc2n1)C1CCC(F)(F)CC1)c1nonc1C1CC1 (single isomer, unassigned) [Compound 19]
0.1 to 1 µM	O=C(N[C@H](c1cn2nc(CC3C[C@@H](C(F)(F)F)CNC3=O)ccc2n1)C1CCC(F)(F)CC1)c1nonc1C(F)F (stereo partly drawn) [Compound 115, N-((1S)-(4,4-difluorocyclohexyl)(6-(((5R)-2-oxo-5-(trifluoromethyl)piperidin-3-yl)methyl)imidazo[1,2-b]pyridazin-2-yl)methyl)-4-(difluoromethyl)-1,2,5-oxadiazole-3-carboxamide]
< 0.1 µM	CCn1nccc1C(=O)N[C@H](c1cn2nc(CC3CCCNC3=O)ccc2n1)C1CCCCCC1 (single isomer, unassigned) [Compound 12]
0.1 to 1 µM	O=C(N[C@H](c1cn2nc(CC3C[C@@H](C(F)(F)F)CNC3=O)ccc2n1)C1CCC(F)(F)CC1)c1ccnn1CC(F)(F)F (stereo partly drawn) [Compound 105, N-((1S)-(4,4-difluorocyclohexyl)(6-(((5R)-2-oxo-5-(trifluoromethyl)piperidin-3-yl)methyl)imidazo[1,2-b]pyridazin-2-yl)methyl)-1-(2,2,2-trifluoroethyl)-1H-pyrazole-5-carboxamide]
> 1 µM	CCn1nccc1C(=O)N[C@H](c1cn2nc(CC3C[C@@H](C(F)(F)F)CNC3=O)c(C)cc2n1)C1CCC(F)(F)CC1 (single isomer, unassigned) [Compound 82]
0.1 to 1 µM	CCn1nccc1C(=O)N[C@H](c1cn2nc(CC3C[C@@H](C(F)(F)F)CNC3=O)c(N(C)C)cc2n1)C1CCC(F)(F)CC1 (single isomer, unassigned) [Compound 85]
< 0.1 µM	O=C(N[C@H](c1cn2nc(CC3C[C@@H](C(F)(F)F)CNC3=O)ccc2n1)C1CCC(F)(F)CC1)c1conc1C1CC1(F)F (single isomer, unassigned) [Compound 127]
0.1 to 1 µM	CCn1nccc1C(=O)N[C@H](c1cn2ncc(CC3C[C@@H](C(F)(F)F)CNC3=O)cc2n1)[C@H]1CC[C@H](C)CC1 (single isomer, unassigned) [Compound 216]
> 1 µM	CCn1nccc1C(=O)NC(c1cn2nc(CC3CC(C)CNC3=O)ccc2n1)C1CCC(C)CC1 (single isomer, unassigned) [Compound 50]
0.1 to 1 µM	CCn1nccc1C(=O)N[C@H](c1cn2nc(CC3CC(C4CC4)CNC3=O)ccc2n1)C1CCC(F)(F)CC1 (single isomer, unassigned) [Compound 70]
> 1 µM	CCn1nccc1C(=O)N[C@H](c1cn2nc(CC3CCCNC3=O)ccc2n1)C1CCCCCC1 (single isomer, unassigned) [Compound 11]
0.1 to 1 µM	CCn1nccc1C(=O)N[C@H](c1cn2nc(CC3C[C@@H](C(F)(F)F)NC3=O)ccc2n1)C1CCC(F)(F)CC1 (stereo partly drawn) [Compound 7, N-((1S)-(4,4-difluorocyclohexyl)(6-(((5S)-2-oxo-5-(trifluoromethyl)pyrrolidin-3-yl)methyl)imidazo[1,2-b]pyridazin-2-yl)methyl)-1-ethyl-1H-pyrazole-5-carboxamide]
< 0.1 µM	CCn1nccc1C(=O)N[C@H](c1cn2ncc(CC3C[C@@H](C(F)(F)F)NC3=O)cc2n1)C1CCC(F)(F)CC1 (single isomer, unassigned) [Compound 204]
< 0.1 µM	O=C(N[C@H](c1cn2nc(CC3C[C@@H](C(F)(F)F)CNC3=O)ccc2n1)[C@H]1CCCC(F)(F)C1)c1nonc1C1CC1 (stereo partly drawn) [Compound 144, 4-cyclopropyl-N—((S)-((S)-3,3-difluorocyclohexyl)(6-(((5R)-2-oxo-5-(trifluoromethyl)piperidin-3-yl)methyl)imidazo[1,2-b]pyridazin-2-yl)methyl)-1,2,5-oxadiazole-3-carboxamide]
> 1 µM	CCn1nccc1C(=O)N[C@H](c1cn2nc(C(C)C3C[C@@H](C(F)(F)F)CNC3=O)ccc2n1)C(C1CC1)C1CC1 (single isomer, unassigned) [Compound 57]

IC50	Compound
> 1 µM	O=C1NC[C@H](C(F)(F)F)CC1Cc1ccc2nc([C@@H](NC(=O)C3CC34CC(F)(F)C4)C3CCC(F)(F)CC3)cn2n1 (single isomer, unassigned) [Compound 130]
< 0.1 µM	CC(C)c1nonc1C(=O)N[C@H](c1cn2nc(CC3C[C@@H](C(F)(F)F)CNC3=O)ccc2n1)[C@@H]1CCCC(F)(F)C1 (stereo partly drawn) [Compound 151, N-((1S)—((R)-3,3-difluorocyclohexyl)(6-(((5R)-2-oxo-5-(trifluoromethyl)piperidin-3-yl)methyl)imidazo[1,2-b]pyridazin-2-yl)methyl)-4-isopropyl-1,2,5-oxadiazole-3-carboxamide]
> 1 µM	CCn1nccc1C(=O)N[C@H](c1cn2ncc(CC3C[C@H](C(F)(F)F)CNC3=O)cc2n1)C(C1CC1)C1CC1 (single isomer, unassigned) [Compound 209]
> 1 µM	CCn1nccc1C(=O)NC(c1cn2ncc(CC3CCC(C(F)(F)F)NC3=O)cc2n1)C1CCC(C)CC1 (single isomer, unassigned) [Compound 213]
> 1 µM	CCn1nccc1C(=O)N[C@H](c1cn2nc(CC3C[C@@H](C(F)(F)F)CNC3=O)ccc2n1)C1CC2(CCC2)C1 (single isomer, unassigned) [Compound 190]
0.1 to 1 µM	CC(C)n1nncc1C(=O)N[C@H](c1cn2nc(CC3C[C@@H](C(F)(F)F)CNC3=O)ccc2n1)C1CCC(F)(F)CC1 (stereo partly drawn) [Compound 107, N-((1S)-(4,4-difluorocyclohexyl)(6-(((5R)-2-oxo-5-(trifluoromethyl)piperidin-3-yl)methyl)imidazo[1,2-b]pyridazin-2-yl)methyl)-1-isopropyl-1H-1,2,3-triazole-5-carboxamide]
0.1 to 1 µM	CCn1nccc1C(=O)N[C@H](c1cn2ncc(CC3C[C@@H](C(F)(F)F)CNC3=O)cc2n1)C(C1CC1)C1CC1 (single isomer, unassigned) [Compound 208]
0.1 to 1 µM	CCn1nccc1C(=O)N[C@H](c1cn2nc(CC3C[C@H](C(F)(F)F)CNC3=O)ccc2n1)C(C1CC1)C1CC1 (stereo partly drawn) [Compound 153, N-((1S)-2,2-dicyclopropyl-1-(6-(((5S)-2-oxo-5-(trifluoromethyl)piperidin-3-yl)methyl)imidazo[1,2-b]pyridazin-2-yl)ethyl)-1-ethyl-1H-pyrazole-5-carboxamide]
> 1 µM	CCn1nccc1C(=O)N[C@H](c1cn2nc(CC3CC(C(F)F)CNC3=O)ccc2n1)C(C1CC1)C1CC1 (mixture of isomers) [Compound 41, N-((1S)-2,2-dicyclopropyl-1-(6-((5-(difluoromethyl)-2-oxopiperidin-3-yl)methyl)imidazo[1,2-b]pyridazin-2-yl)ethyl)-1-ethyl-1H-pyrazole-5-carboxamide]
< 0.1 µM	CCN(C)c1cc2nc([C@@H](NC(=O)c3ccnn3CC)C3CCC(F)(F)CC3)cn2nc1CC1C[C@@H](C(F)(F)F)CNC1=O (single isomer, unassigned) [Compound 88]
0.1 to 1 µM	CCn1nccc1C(=O)N[C@H](c1cn2nc(CC3CC4(CC4)CNC3=O)ccc2n1)[C@H]1CC[C@H](C)CC1 (single isomer, unassigned) [Compound 64]
0.1 to 1 µM	N#Cc1cc(C(=O)N[C@H](c2cn3nc(CC4C[C@@H](C(F)(F)F)CNC4=O)ccc3n2)C2CCC(F)(F)CC2)cs1 (stereo partly drawn) [Compound 134, 5-cyano-N-((1S)-(4,4-difluorocyclohexyl)(6-(((5R)-2-oxo-5-(trifluoromethyl)piperidin-3-yl)methyl)imidazo[1,2-b]pyridazin-2-yl)methyl)thiophene-3-carboxamide]
0.1 to 1 µM	CCn1nccc1C(=O)N[C@H](c1cn2nc(CC3C[C@@H](C(F)(F)F)CNC3=O)ccc2n1)C1CCCCC1 (stereo partly drawn) [Compound 191, N-((1S)-cyclohexyl(6-(((5R)-2-oxo-5-(trifluoromethyl)piperidin-3-yl)methyl)imidazo[1,2-b]pyridazin-2-yl)methyl)-1-ethyl-1H-pyrazole-5-carboxamide]
0.1 to 1 µM	O=C(N[C@H](c1cn2nc(CC3C[C@@H](C(F)(F)F)CNC3=O)ccc2n1)C1CCC(F)(F)CC1)c1cnnn1CCF (stereo partly drawn) [Compound 109, N-((1S)-(4,4-difluorocyclohexyl)(6-(((5R)-2-oxo-5-(trifluoromethyl)piperidin-3-yl)methyl)imidazo[1,2-b]pyridazin-2-yl)methyl)-1-(2-fluoroethyl)-1H-1,2,3-triazole-5-carboxamide]
0.1 to 1 µM	O=C(N[C@H](c1cn2nc(CC3C[C@@H](C(F)(F)F)CNC3=O)ccc2n1)C1CCC(F)(F)CC1)c1conc1C12CC(F)(C1)C2 (stereo partly drawn) [Compound 140, N-((1S)-(4,4-difluorocyclohexyl)(6-(((5R)-2-oxo-5-(trifluoromethyl)piperidin-3-yl)methyl)imidazo[1,2-b]pyridazin-2-yl)methyl)-3-(3-fluorobicyclo[1.1.1]pentan-1-yl)isoxazole-4-carboxamide]
0.1 to 1 µM	O=C(N[C@H](c1cn2nc(CC3C[C@@H](C(F)(F)F)CNC3=O)ccc2n1)C1CCC(F)(F)CC1)c1conc1C1(F)CC1 (stereo partly drawn) [Compound 122, N-((1S)-(4,4-difluorocyclohexyl)(6-(((5R)-2-oxo-5-(trifluoromethyl)piperidin-3-yl)methyl)imidazo[1,2-b]pyridazin-2-yl)methyl)-3-(1-fluorocyclopropyl)isoxazole-4-carboxamide]
